Source: patent US20220251105A1, “METHODS OF TREATING A MK2-MEDIATED DISORDER” (Celgene CAR LLC, priority 2019, published 2022)

What was measured:
[1] = plasma exposure in HLA-B27/Huβ2m rats; settings: 10 mg/kg daily oral (comparator)
Source text: In each disease model, steady-state pharmacokinetics were characterized.

[2] = tested on: Ankylosing spondylitis in HLA B27 Tg rat; assay: HLA-B27/Huβ2m transgenic rat model of ankylosing spondylitis
Source text: Etanercept and tofactinib (Balagué et al. Profiling of dihydroorotate dehydrogenase, p38 and JAK inhibitors in the rat adjuvant-induced arthritis model: a translational study. Br J Pharmacol. 2012 June; 166(4):1320-32) were included in this rat study as comparator molecules.

| Molecule | AUCLST [1] | Paw Swelling Inhibition (%) ([2]; 10 mg/kg daily oral gavage (comparator)) | Paw Swelling Inhibition (%) ([2]; 10 mg/kg twice weekly subcutaneous injection (comparator)) |
| --- | --- | --- | --- |
| C[C@@H]1CCN(C(=O)CC#N)C[C@@H]1N(C)c1ncnc2[nH]ccc12 [Tofacitinib, tofacitinib, reference compound] | 6540 ng·h/mL | 47% |  |
| Etanercept |  |  | 42% |
